“And” between values parts separate entries of the source, which are not always exact repeats. Equal entries are not always repeated. Toxic doses and inconclusive results are not listed.
System: P388 leukemia ip, CD2F1 mice, survival T/C
Assay: NCI In Vivo Anticancer Drug Screen. Data for tumor model P388 Leukemia (intraperitoneal) in CD2F1 (CDF1) mice
Conditions: endpoint: median survival time, higher = longer survival
How it was run: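 Mice carrying the transplanted tumor received test compound or vehicle. Survival was recorded in each group, and the value is the treated-group measurement divided by that of the vehicle-treated control group.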

[1] = dose: 100.0 mg/kg/injection, schedule: Q04DX003 (ip), vehicle: saline with Tween-80
[2] = dose: 100.0 mg/kg/injection, schedule: Q01DX001 (ip), vehicle: saline with Tween-80
[3] = dose: 200.0 mg/kg/injection, schedule: Q01DX001 (ip), vehicle: saline with Tween-80
[4] = dose: 400.0 mg/kg/injection, schedule: Q01DX001 (ip), vehicle: saline with Tween-80
[5] = dose: 50.0 mg/kg/injection, schedule: Q01DX009 (ip), vehicle: saline
[6] = dose: 100.0 mg/kg/injection, schedule: Q01DX009 (ip), vehicle: saline
[7] = dose: 200.0 mg/kg/injection, schedule: Q01DX009 (ip), vehicle: saline
[8] = dose: 12.5 mg/kg/injection, schedule: Q01DX005 (ip), vehicle: saline with Tween-80
[9] = dose: 25.0 mg/kg/injection, schedule: Q01DX005 (ip), vehicle: saline with Tween-80
[10] = dose: 50.0 mg/kg/injection, schedule: Q01DX005 (ip), vehicle: saline with Tween-80
[11] = dose: 60.0 mg/kg/injection, schedule: Q01DX005 (ip), vehicle: Klucel (hydroxypropylcellulose) (HPC)
[12] = dose: 120.0 mg/kg/injection, schedule: Q01DX005 (ip), vehicle: Klucel (hydroxypropylcellulose) (HPC)
[13] = dose: 240.0 mg/kg/injection, schedule: Q01DX005 (ip), vehicle: Klucel (hydroxypropylcellulose) (HPC)
[14] = dose: 50.0 mg/kg/injection, schedule: Q01DX009 (ip), vehicle: saline with Tween-80
[15] = dose: 100.0 mg/kg/injection, schedule: Q01DX009 (ip), vehicle: saline with Tween-80
[16] = dose: 25.0 mg/kg/injection, schedule: Q01DX009 (ip), vehicle: saline with Tween-80
[17] = dose: 200.0 mg/kg/injection, schedule: Q01DX009 (ip), vehicle: saline with Tween-80
[18] = dose: 50.0 mg/kg/injection, schedule: Q01DX005 (ip), vehicle: Klucel (hydroxypropylcellulose) (HPC)
[19] = dose: 100.0 mg/kg/injection, schedule: Q01DX005 (ip), vehicle: Klucel (hydroxypropylcellulose) (HPC)
[20] = dose: 25.0 mg/kg/injection, schedule: Q01DX009 (ip), vehicle: saline
[21] = dose: 100.0 mg/kg/injection, schedule: Q01DX005 (ip), vehicle: saline with Tween-80
[22] = dose: 200.0 mg/kg/injection, schedule: Q01DX005 (ip), vehicle: saline with Tween-80
[23] = dose: 12.5 mg/kg/injection, schedule: Q01DX009 (ip), vehicle: saline
[24] = dose: 60.0 mg/kg/injection, schedule: Q01DX005 (ip), vehicle: saline with Tween-80
[25] = dose: 120.0 mg/kg/injection, schedule: Q01DX005 (ip), vehicle: saline with Tween-80
[26] = dose: 240.0 mg/kg/injection, schedule: Q01DX005 (ip), vehicle: saline with Tween-80
[27] = dose: 6.25 mg/kg/injection, schedule: Q01DX009 (ip), vehicle: saline

`COc1cc(-c2ccc(O)cc2)c(OC)c(O)c1-c1ccc(O)c(O)c1` was tested, and the T/C (dose: 0.6 mg/kg/injection, schedule: Q01DX009 (ip), vehicle: saline) was 100 % of control, the T/C (dose: 1.2 mg/kg/injection, schedule: Q01DX009 (ip), vehicle: saline) was 95 % of control and the T/C (dose: 10.0 micrograms/kg/injection, schedule: Q01DX009 (ip), vehicle: saline with Tween-80) was 111 % of control. The T/C (dose: 20.0 micrograms/kg/injection, schedule: Q01DX009 (ip), vehicle: saline with Tween-80) was 105 % of control, the T/C (dose: 40.0 micrograms/kg/injection, schedule: Q01DX009 (ip), vehicle: saline with Tween-80) was 104 % of control and the T/C (dose: 80.0 micrograms/kg/injection, schedule: Q01DX009 (ip), vehicle: saline with Tween-80) was 105 % of control.
`CC12COC(=O)CC1CCC1C2CCC2(C)C1CCC2(C)O` (stereo unspecified) was tested, and the T/C [1] was 95 % of control and the T/C (dose: 200.0 mg/kg/injection, schedule: Q04DX003 (ip), vehicle: saline with Tween-80) was 104 % of control.
`CCOC(=O)/C=C(\C(=O)OCC)N(O)C(=O)CN1C(=O)c2ccccc2C1=O` was tested, and the T/C (dose: 50.0 mg/kg/injection, schedule: Q01DX001 (ip), vehicle: saline with Tween-80) was 106 % of control, the T/C [2] was 105 % of control and the T/C [3] was 98 % of control. For the same molecule, the T/C [4] was 93 % of control.
In the case of `O=C(Nc1cccc(C(F)(F)F)c1)Oc1ccc(Cl)cc1C(=O)c1ccccc1`, the T/C [5] is reported as 97 % of control, the T/C [6] is reported as 92 % of control and the T/C [7] is reported as 96 % of control.
`CS(=O)(=O)c1snc(N)c1C#N` was tested, and the T/C [8] was 106 % of control, the T/C [9] was 101 % of control and the T/C [10] was 102 % of control.
`CCOC(=O)c1c(N=P(c2ccccc2)(c2ccccc2)c2ccccc2)n(C)c(=O)n(C)c1=O` was tested, and the T/C [11] was 105 % of control, the T/C [12] was 99 % of control and the T/C [13] was 98 % of control.
With `ClC1(Cl)C2CCCCC21` (stereo unspecified) the T/C [14] was 100 % of control and the T/C [15] was 90 % of control.
With `O=CNc1ccc2c(c1)Cc1cc(Br)ccc1-2` the T/C [16] was 93 % of control, the T/C [14] was 98 % of control and the T/C [15] was 93 % of control. For the same molecule, the T/C [17] was 88 % of control.
In the case of `C/C(=N\NC(=S)N(C)C)c1cnccn1`, the T/C [8] is reported as 102 % of control, the T/C [9] is reported as 100 % of control and the T/C [10] is reported as 98 % of control and 101 % of control.
`Clc1ccccc1N1CCN(CCCN2CCN(c3ccccc3Cl)CC2)CC1` was tested, and the T/C [16] was 97 % of control, the T/C [14] was 94 % of control and the T/C [15] was 100 % of control.
`CC(SCc1ccccc1)C(NC(=O)CCl)C(=O)O` (stereo unspecified) was tested, and the T/C [2] was 100 % of control, the T/C [3] was 97 % of control and the T/C [4] was 91 % of control.
With `O=NN(CCCl)C(=O)N[C@H]1CCCC[C@@H]1Cl` the T/C [16] was 250 % of control, the T/C (dose: 33.0 mg/kg/injection, schedule: Q04DX003 (ip), vehicle: saline with Tween-80) was 200 % of control and the T/C [14] was 109 % of control. The T/C (dose: 50.0 mg/kg/injection, schedule: Q04DX003 (ip), vehicle: saline with Tween-80) was 300 % of control and the T/C [1] was 90 % of control.
`CCC(C)C(=O)/C=C/c1ccc(Cl)c(Cl)c1` (stereo unspecified) was tested, and the T/C [14] was 99 % of control, the T/C [15] was 99 % of control and the T/C [17] was 99 % of control.
With `CC1(c2ccccc2)CCCCC/C1=N/Nc1ccc([N+](=O)[O-])cc1[N+](=O)[O-]` (stereo unspecified) the T/C (dose: 25.0 mg/kg/injection, schedule: Q01DX005 (ip), vehicle: Klucel (hydroxypropylcellulose) (HPC)) was 97 % of control, the T/C [18] was 90 % of control and the T/C [19] was 94 % of control.
In the case of `C=C(CN1CCCC1)C(=O)c1ccc(OC)cc1`, the T/C (dose: 0.93 mg/kg/injection, schedule: Q01DX005 (ip), vehicle: saline) is reported as 97 % of control, the T/C (dose: 1.87 mg/kg/injection, schedule: Q01DX005 (ip), vehicle: saline) is reported as 117 % of control and the T/C (dose: 3.75 mg/kg/injection, schedule: Q01DX005 (ip), vehicle: saline) is reported as 108 % of control.
With `O=C1/C(=C/c2ccc(F)cc2)SC(=S)N1c1ccc(Cl)c(Cl)c1` the T/C [20] was 91 % of control and 95 % of control, the T/C [5] was 104 % of control and 91 % of control and 94 % of control and the T/C [6] was 100 % of control and 94 % of control. The T/C [7] was 108 % of control and 124 % of control and 91 % of control.
For `C/C(=C1/N=C(c2ccccc2)OC1=O)c1ccccc1`, the T/C [10] was 98 % of control, the T/C [21] was 96 % of control and the T/C [22] was 98 % of control.
For `[NH-]CC([NH-])=O.[NH-]CC([NH-])=O.[Ni]`, the T/C (dose: 1.0 mg/kg/injection, schedule: Q01DX009 (ip), vehicle: saline) was 100 % of control, the T/C (dose: 2.0 mg/kg/injection, schedule: Q01DX009 (ip), vehicle: saline) was 95 % of control and the T/C (dose: 4.0 mg/kg/injection, schedule: Q01DX009 (ip), vehicle: saline) was 100 % of control. The T/C (dose: 8.0 mg/kg/injection, schedule: Q01DX009 (ip), vehicle: saline) was 100 % of control.
With `CC1=NN(C(=O)c2ccccn2)C(c2ccccc2)/C1=N\Nc1ccc(S(N)(=O)=O)cc1` (stereo unspecified) the T/C [11] was 87 % of control, the T/C [12] was 93 % of control and the T/C [13] was 87 % of control.
For `CC1(C(Cl)(Cl)Cl)C=CC(=NO)C=C1` (stereo unspecified), the T/C [18] was 110 % of control, the T/C [19] was 107 % of control and the T/C (dose: 200.0 mg/kg/injection, schedule: Q01DX005 (ip), vehicle: Klucel (hydroxypropylcellulose) (HPC)) was 110 % of control.
For `O=C(Oc1ccccc1OC(=O)c1ccccc1)c1ccccc1`, the T/C (dose: 6.25 mg/kg/injection, schedule: Q01DX009 (ip), vehicle: saline with Tween-80) was 108 % of control, the T/C (dose: 12.5 mg/kg/injection, schedule: Q01DX009 (ip), vehicle: saline with Tween-80) was 102 % of control and the T/C [16] was 106 % of control. The T/C [14] was 108 % of control.
For `CCC(=O)N1C(=O)C(C)C23c4cccc([N+](=O)[O-])c4C(=O)N2CCCN13` (stereo unspecified), the T/C [11] was 100 % of control, the T/C [12] was 97 % of control and the T/C [13] was 93 % of control.
In the case of `CCCCCCCCCCCCCCN1CCOCC1`, the T/C [23] is reported as 94 % of control, the T/C [20] is reported as 100 % of control and the T/C [5] is reported as 100 % of control and 98 % of control.
In the case of `COc1ccc2c(c1OC)C[N+]1(C)CCc3cc4c(cc3C1=C2C)OCO4` (stereo unspecified), the T/C (dose: 1.56 mg/kg/injection, schedule: Q01DX005 (ip), vehicle: Klucel (hydroxypropylcellulose) (HPC)) is reported as 99 % of control, the T/C (dose: 3.12 mg/kg/injection, schedule: Q01DX005 (ip), vehicle: Klucel (hydroxypropylcellulose) (HPC)) is reported as 99 % of control and the T/C (dose: 6.25 mg/kg/injection, schedule: Q01DX005 (ip), vehicle: Klucel (hydroxypropylcellulose) (HPC)) is reported as 103 % of control and 113 % of control.
`Cn1c[n+](C2OC(CO)C(O)C2O)c2nc(N)[nH]c(=O)c21` (stereo unspecified) was tested, and the T/C (dose: 50.0 mg/kg/injection, schedule: Q01DX005 (ip), vehicle: saline) was 119 % of control, the T/C (dose: 100.0 mg/kg/injection, schedule: Q01DX005 (ip), vehicle: saline) was 105 % of control and the T/C (dose: 200.0 mg/kg/injection, schedule: Q01DX005 (ip), vehicle: saline) was 115 % of control.
`COc1cccc(N=C(C)C2C(=O)c3ccccc3C2=O)c1` was tested, and the T/C [10] was 109 % of control, the T/C [21] was 100 % of control and the T/C [22] was 95 % of control.
`Cc1onc(-c2c(Cl)cccc2Cl)c1C(=O)Oc1ccc(-c2ccc(OC(=O)c3c(-c4c(Cl)cccc4Cl)noc3C)cc2)cc1` was tested, and the T/C [24] was 108 % of control, the T/C [25] was 102 % of control and the T/C [26] was 89 % of control.
In the case of `COC(=O)c1cc(/C=C/c2ccccc2)[nH]c(=O)c1C#N`, the T/C [24] is reported as 106 % of control, the T/C [25] is reported as 105 % of control and the T/C [26] is reported as 98 % of control.
In the case of `O=C1C[N+]2(CCCCC2)c2ccc(Cl)cc2N1`, the T/C [27] is reported as 104 % of control, the T/C (dose: 6.25 mg/kg/injection, schedule: Q04DX003 (ip), vehicle: saline) is reported as 100 % of control and the T/C [23] is reported as 109 % of control. For the same molecule, the T/C (dose: 12.5 mg/kg/injection, schedule: Q04DX003 (ip), vehicle: saline) was 104 % of control, the T/C [20] was 104 % of control and the T/C (dose: 25.0 mg/kg/injection, schedule: Q04DX003 (ip), vehicle: saline) was 100 % of control.
In the case of `C[n+]1ccc(C(c2ccccc2)c2ccccc2)cc1`, the T/C [27] is reported as 104 % of control, the T/C [23] is reported as 112 % of control and the T/C [20] is reported as 100 % of control.

Source: PubChem BioAssay AID330 (DTP/NCI, 2004)
